From ChEMBL document CHEMBL1132798 (Bioorg Med Chem Lett, 2000) come the findings set out here.

Activity calls are given as the source filed them. The rule behind the calls is not given here.

In assay [1] the target is Delta-type opioid receptor (Rattus norvegicus, UniProt P33533). Put plainly: Compound was evaluated for its ability to displace [3H]p-CI-DPDPE in C6 glioma cells expressing the cloned Opioid receptor delta 1. The format is cell-based.
For assay [2], the target named is Kappa-type opioid receptor (Rattus norvegicus, UniProt P34975). Put plainly: Compound was evaluated for its ability to displace [3H]U-69593 in CHO cells expressing the cloned Opioid receptor kappa 1. It counts as cell-based.
For assay [3], the target named is Opioid receptors; mu & delta (Homo sapiens) (UniProt P41143+P35372). Put plainly: Ratio of binding affinity to mu receptor to that of delta receptor. It counts as protein assay.
Assay [4] has as its target Mu-type opioid receptor (Rattus norvegicus, UniProt P33535). Nature of the assay: Compound was evaluated for its ability to displace [3H]DAMGO in C6 glioma cells expressing the cloned Opioid receptor mu 1. It counts as cell-based.
The species entered for assay [5] is Mus musculus. Nature of the assay: Compound was evaluated for antinociceptive activity in mouse using paraphenylquinone assay. The format is functional.
For assay [6], the species on record is Mus musculus. Nature of the assay: Compound was evaluated for antinociceptive activity in mouse using tail flick assay. The format is functional. In general terms: Thermal pain tests record how soon the animal reacts.
For assay [7], the species on record is Mus musculus. Put plainly: Compound was evaluated for antinociceptive activity in mouse using hot plate assay. The format is functional.
The species entered for assay [8] is Mus musculus. Nature of the assay: Compound was evaluated for antinociceptive activity in mouse; IA means inactive. The format is functional, organism-based.
Assay [9] is filed under the species Mus musculus. Put plainly: Compound was evaluated for antinociceptive activity in mouse. The format is functional.
Assay [10] is filed under the species Mus musculus. Nature of the assay: Compound was evaluated for antinociceptive activity in mouse using tail flick assay; Inactive. It counts as functional, organism-based.
Assay [11] is filed under the species Mus musculus. Nature of the assay: Compound was evaluated for antinociceptive activity in mouse using hot plate assay; Inactive. The format is functional, organism-based.
The species entered for assay [12] is Mus musculus. Put plainly: Compound was evaluated for antinociceptive activity in mouse using paraphenylquinone assay; Inactive. The format is functional, organism-based.
The species entered for assay [13] is Mus musculus. Nature of the assay: Compound was evaluated for antinociceptive activity in mouse using tail flick vs morphine assay; Inactive. The format is functional, organism-based.
The species named for assay [14] is Mus musculus. Nature of the assay: Compound was evaluated for antinociceptive activity in mouse using tail flick vs morphine assay. It counts as functional.

Sequence of Opioid receptors; mu & delta (Homo sapiens) (P35372 whole entry, looked up): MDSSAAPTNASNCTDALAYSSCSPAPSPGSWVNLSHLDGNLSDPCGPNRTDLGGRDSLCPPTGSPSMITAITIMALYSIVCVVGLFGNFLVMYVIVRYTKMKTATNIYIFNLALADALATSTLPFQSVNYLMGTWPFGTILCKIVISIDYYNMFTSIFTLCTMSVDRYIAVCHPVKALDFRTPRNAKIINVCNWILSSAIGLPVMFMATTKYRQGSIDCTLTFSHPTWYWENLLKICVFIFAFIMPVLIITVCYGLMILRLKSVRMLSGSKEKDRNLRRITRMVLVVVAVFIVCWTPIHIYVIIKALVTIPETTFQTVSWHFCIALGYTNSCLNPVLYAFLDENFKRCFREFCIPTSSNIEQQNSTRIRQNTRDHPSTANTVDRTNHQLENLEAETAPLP
Sequence of Opioid receptors; mu & delta (Homo sapiens) (P41143 whole entry, looked up): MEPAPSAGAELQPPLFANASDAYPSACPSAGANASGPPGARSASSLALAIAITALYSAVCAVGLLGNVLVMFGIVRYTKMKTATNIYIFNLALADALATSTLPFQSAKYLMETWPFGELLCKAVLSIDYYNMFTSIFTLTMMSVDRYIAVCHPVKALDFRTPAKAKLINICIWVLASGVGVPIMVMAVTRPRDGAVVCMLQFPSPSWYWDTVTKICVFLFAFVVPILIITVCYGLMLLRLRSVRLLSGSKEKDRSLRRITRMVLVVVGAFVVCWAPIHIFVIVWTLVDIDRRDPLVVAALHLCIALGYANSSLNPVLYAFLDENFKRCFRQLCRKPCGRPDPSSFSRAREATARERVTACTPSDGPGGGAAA
Sequence of Mu-type opioid receptor (P33535 whole entry): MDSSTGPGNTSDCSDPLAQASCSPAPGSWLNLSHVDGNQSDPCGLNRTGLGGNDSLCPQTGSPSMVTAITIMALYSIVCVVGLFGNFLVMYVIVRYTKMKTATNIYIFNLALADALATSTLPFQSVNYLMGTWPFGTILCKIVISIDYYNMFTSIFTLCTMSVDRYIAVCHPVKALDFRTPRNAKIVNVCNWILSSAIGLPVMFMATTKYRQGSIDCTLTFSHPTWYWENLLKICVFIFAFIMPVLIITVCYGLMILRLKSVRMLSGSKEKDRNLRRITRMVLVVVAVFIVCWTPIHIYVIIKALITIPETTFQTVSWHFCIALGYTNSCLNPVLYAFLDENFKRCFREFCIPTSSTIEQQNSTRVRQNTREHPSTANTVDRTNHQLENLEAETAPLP
Sequence of Kappa-type opioid receptor (P34975 whole entry): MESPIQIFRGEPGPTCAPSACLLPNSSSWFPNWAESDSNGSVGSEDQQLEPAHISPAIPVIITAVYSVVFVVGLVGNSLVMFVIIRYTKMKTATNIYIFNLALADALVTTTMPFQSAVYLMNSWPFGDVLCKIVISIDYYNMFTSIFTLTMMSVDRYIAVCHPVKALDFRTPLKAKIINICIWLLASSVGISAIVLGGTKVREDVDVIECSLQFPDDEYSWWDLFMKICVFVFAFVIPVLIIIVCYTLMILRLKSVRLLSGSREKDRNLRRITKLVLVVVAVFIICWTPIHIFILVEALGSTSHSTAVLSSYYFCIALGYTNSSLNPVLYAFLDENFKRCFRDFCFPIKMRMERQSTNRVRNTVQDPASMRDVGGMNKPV
Sequence of Delta-type opioid receptor (P33533 whole entry): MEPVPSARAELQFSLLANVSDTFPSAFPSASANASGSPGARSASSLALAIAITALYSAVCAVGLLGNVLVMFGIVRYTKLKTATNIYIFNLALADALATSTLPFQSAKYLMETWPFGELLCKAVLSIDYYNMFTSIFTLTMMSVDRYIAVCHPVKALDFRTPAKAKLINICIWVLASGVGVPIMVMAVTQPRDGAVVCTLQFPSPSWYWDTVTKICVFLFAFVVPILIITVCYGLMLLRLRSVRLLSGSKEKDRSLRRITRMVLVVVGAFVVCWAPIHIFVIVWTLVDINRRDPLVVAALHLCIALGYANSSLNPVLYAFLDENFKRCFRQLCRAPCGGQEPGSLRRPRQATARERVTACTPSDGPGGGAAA

As a reminder, the Ki is a dissociation constant, usually derived from enzyme kinetics or from competition with a known ligand. Regarding `Oc1ccc2c3c1OC1c4[nH]c5ccccc5c4C[C@@]4(O)[C@@H](C2)N(Cc2ccccc2)CCC314` (some centres undefined), the inhibition constant (Ki) came out at 115 nM in assay [1], 134 nM in [2] and 5330 nM in assay [4]. Besides, the Ratio in assay [3] is 46.
For `Oc1ccc2c3c1OC1c4[nH]c5ccccc5c4C[C@@]4(O)[C@@H](C2)N(CCC2CCCCC2)CCC314` (some centres undefined), the values for the Ki in assay [1], in assay [2] and in assay [4] were 181 nM, 378 nM and 7.3 nM, respectively. For the same molecule, the Ratio in assay [3] was found to be 0. Also, the Activity in assay [5] is 0.39 mg/kg; in assay [6], 3.86 mg/kg; in assay [7], 2.42 mg/kg.
Regarding `Oc1ccc2c3c1O[C@H]1c4[nH]c5ccccc5c4C[C@@]4(O)[C@@H](C2)N(CC2CC2)CC[C@]314` [NALTRINDOLE], the inhibition constant Ki in assay [1] came out at 0.04 nM; in assay [2] it was 5.8 nM. Further, the result in assay [8] was inactive.
Turning to `Oc1ccc2c3c1O[C@H]1c4[nH]c5c(c4C[C@@]4(O)[C@@H](C2)N(CC2CC2)CC[C@]314)C[C@@]1(O)[C@H]2Cc3ccc(O)c4c3[C@@]1(CCN2CC1CC1)[C@H]5O4`, in assay [8], the result was inactive.
Turning to `CCCN(CC1CC1)C1Cc2ccc(O)c3c2C2C(O3)C(NC(=O)/C=C/C(=O)OC)CC[C@]21O` (some centres undefined), the AD50 in [9] was 1.25 ug brain-1.
`Oc1ccc2c3c1OC1c4[nH]c5ccccc5c4C[C@@]4(O)[C@@H](C2)N(CC2CCCCC2)CCC314` (some centres undefined): the Ki in assay [1] turned out to be 94.5 nM; in assay [2] it was 1110 nM; in assay [4] it was 1920 nM. Moreover, the Ratio in [3] amounted to 20. For the same molecule, the outcome in assay [10], in assay [11], in assay [12] and in [13] was inactive.
With `CN1CC[C@]23c4c5ccc(O)c4O[C@H]2[C@@H](O)C=C[C@H]3[C@H]1C5.CN1CC[C@]23c4c5ccc(O)c4O[C@H]2[C@@H](O)C=C[C@H]3[C@H]1C5.O=S(=O)(O)O`, the results for the Activity in assay [5], in assay [6] and in assay [7] were 0.4 mg/kg, 0.73 mg/kg and 3.1 mg/kg, respectively.
`C=CCN1CC[C@]23c4c5ccc(O)c4O[C@H]2C(=O)CC[C@@]3(O)[C@H]1C5` [NALOXONE] returned an AD50 in assay [9] of 0.1. Besides, in assay [14], the Activity is 0.04 mg/kg.
